Experimental data taken from ChEMBL document CHEMBL6134907, “Synthesis of 5,9- and 5,8-Diaminoalkoxy Substituted Benzophenanthridinone Analogues as Tyrosyl-DNA Phosphodiesterase 1 Inhibitors and Their Radiosensitizing Activity” (J Med Chem, 2025).
Activity calls are given as the source filed them. The calls are words filed in the database; no cut-off is given here.

Assays:
[1] = Toxicity in BALB/c mouse xenografted with human HCT-116 cells assessed as change in lung weight at 1 to 10 mg/kg, ip every day for 14 days; type: organism-based; settings: in vivo, 336 h, dose 1-10 mg/kg, time 14 day
HCT-116 [2] = experiment: Reduction in recruitment of XRCC4 at damage site of human HCT-116 cells at 5 uM radiated with 4 GY ionizing radiation (IR) measured after 3 hrs by fluorescence colocalization assay; type: functional, cell-based
HCT-116 [3] = experiment: Induction of 4GY ionizing radiation (IR) induced apoptosis in human HCT-116 cells assessed as viable cells at 5 uM measured after 24 hrs by FITC Annexin V/PI apoptosis detection assay (reference value: 66.88%); type: functional; settings: read-out: Activity
HCT-116 [4] = experiment: Induction of apoptosis in human HCT-116 cells assessed as induction of 4GY ionizing radiation (IR) induced cleaved Caspase-7 at 5 uM measured after 24 hrs by Western blot analysis; type: functional, cell-based
HCT-116 [5] = experiment: Cytotoxicity against human HCT116 cells assessed as cell killing at 0.5 uM relative to control; type: functional
HCT-116 [6] = experiment: Induction of 4GY ionizing radiation (IR) induced apoptosis in human HCT-116 cells assessed as late apoptotic cells at 10 uM measured after 24 hrs by FITC Annexin V/PI apoptosis detection assay (reference value: 14.32%); type: functional
HCT-116 [7] = experiment: Induction of gamma-H2AX level in human HCT-116 cells at 5 uM measured after 3 hrs by Western blot analysis; type: functional, cell-based
HCT-116 [8] = experiment: Effect on Ku70/80 expression in wild type human HCT-116 cells assessed as change in mRNA level at 5 to 10 uM measured after 24 hrs by qRT-PCR analysis; type: functional, cell-based; settings: dose 5-10 µM
[9] = Oral bioavailability in male Sprague-Dawley rat at 5 mg/kg measured up to 24 hrs by LCMS-MS analysis; type: ADME, organism-based; settings: in vivo
HCT-116 [10] = experiment: Effect on Ku70/80 expression in wild type human HCT-116 cells assessed as change in protein level at 5 to 10 uM radiated with 4 GY ionizing radiation (IR) measured after 24 hrs by Western blot analysis; type: functional, cell-based; settings: dose 5-10 µM
[11] = Induction of 4GY ionizing radiation (IR) induced cell cycle arrest in human HCT-116 cells assessed as accumulation of cells at S phase at 5 uM measured after 24 hrs by Propidium iodide (PI) staining based assay (reference value: 11.48%); type: functional
[12] = Half life in male Sprague-Dawley rat at 5 mg/kg, IG measured up to 24 hrs by LCMS-MS analysis; type: ADME, organism-based; settings: in vivo, po
HCT-116 [13] = experiment: Induction of cell cycle arrest in human HCT-116 cells assessed as accumulation of cells at G2/M phase at 5 uM measured after 24 hrs by Propidium iodide (PI) staining based assay (reference value: 15.77%); type: functional
HCT-116 [14] = experiment: Effect on Ku70/80 expression in wild type human HCT-116 cells assessed as change in protein level at 5 to 10 uM measured after 24 hrs by Western blot analysis; type: functional, cell-based; settings: dose 5-10 µM
HCT-116 [15] = experiment: Induction of apoptosis in human HCT-116 cells assessed as induction of 4GY ionizing radiation (IR) induced cleaved Caspase-3 at 5 uM measured after 24 hrs by Western blot analysis; type: functional, cell-based
HCT-116 [16] = experiment: Induction of apoptosis in human HCT-116 cells assessed as viable cells at 10 uM measured after 24 hrs by FITC Annexin V/PI apoptosis detection assay (reference value: 99.71%); type: functional; settings: read-out: Activity
[17] = Toxicity in BALB/c mouse xenografted with human HCT-116 cells assessed as change in kidney weight at 1 to 10 mg/kg, ip every day for 14 days; type: organism-based; settings: in vivo, 336 h, dose 1-10 mg/kg, time 14 day
HCT-116 [18] = experiment: Reduction of XRCC4 expression in wild type human HCT-116 cells assessed as reduction in mRNA level at 5 to 10 uM measured after 24 hrs by qRT-PCR analysis; type: functional, cell-based; settings: dose 5-10 µM
[19] = Induction of 4GY ionizing radiation (IR) induced cell cycle arrest in human HCT-116 cells assessed as accumulation of cells at G2/M phase at 10 uM measured after 24 hrs by Propidium iodide (PI) staining based assay (reference value: 20.51%); type: functional
HCT-116 [20] = experiment: Induction of 4GY ionizing radiation (IR) induced apoptosis in human HCT-116 cells assessed as early apoptotic cells at 5 uM measured after 24 hrs by FITC Annexin V/PI apoptosis detection assay (reference value: 17.50%); type: functional
HCT-116 [21] = experiment: Induction of cell cycle arrest in human HCT-116 cells assessed as accumulation of cells at S phase at 5 uM measured after 24 hrs by Propidium iodide (PI) staining based assay (reference value: 13.96%); type: functional
[22] = Toxicity in BALB/c mouse xenografted with human HCT-116 cells assessed as change in kidney weight at 1 to 10 mg/kg, ip every day for 14 days radiated for every 2 days once; type: organism-based; settings: in vivo, 336 h, dose 1-10 mg/kg, time 14 day
[23] = AUC infinity in male Sprague-Dawley rat at 5 mg/kg, IG measured up to 24 hrs by LCMS-MS analysis; type: ADME, organism-based; settings: in vivo, po
HCT-116 [24] = experiment: Synergistic cytotoxicity against human SgTDP1-HCT-116 cells (TDP1 knockout) assessed as combination index at 0.5 uM incubated for 48 hrs in presence of 2GY ionizing radiation; type: functional
[25] = AUC infinity in male Sprague-Dawley rat at 1 mg/kg, iv measured up to 24 hrs by LCMS-MS analysis; type: ADME, organism-based; settings: in vivo
HCT-116 [26] = experiment: In vivo radiosensitizing activity in human HCT-116 cells xenografted in BALB/c mouse assessed as sensitization of 1 GY ionizing radiation induced tumor growth inhibition at 10 mg/kg, ip every day for 14 days radiated for every 2 days once; type: functional, organism-based; settings: time 14.0 day
HCT-116 [27] = experiment: Synergistic cytotoxicity against human SgTDP1-HCT-116 cells (TDP1 knockout) assessed as combination index at 1 uM incubated for 48 hrs in presence of 2GY ionizing radiation; type: functional
HCT-116 [28] = experiment: Reduction of XRCC4 expression in wild type human HCT-116 cells assessed as reduction in protein level at 5 to 10 uM radiated with 4 GY ionizing radiation (IR) measured after 24 hrs by Western blot analysis; type: functional, cell-based; settings: dose 5-10 µM
[29] = Toxicity in BALB/c mouse xenografted with human HCT-116 cells assessed as change in lung weight at 1 to 10 mg/kg, ip every day for 14 days radiated for every 2 days once; type: organism-based; settings: in vivo, 336 h, dose 1-10 mg/kg, time 14 day
[30] = test system: Tyrosyl-DNA phosphodiesterase 1/Deoxyribonucleic acid; experiment: Stabilization of TDP1/DNA complex in human HCT-116 cells at 100 uM by Cellular Thermal Shift Assay (CETSA); type: cell-based
HeLa = experiment: Radiosensitizing activity in human HeLa cells assessed as sensitization of 2 GY ionizing radiation induced decrease in cell survival by colony formation assay; type: functional, cell-based
HCT-116 [31] = experiment: Induction of 4GY ionizing radiation (IR) induced ROS production in human HCT-116 cells assessed as mitochondrial dysfunction by measuring mitochondrial membrane potential loss at 10 uM measured after 24 hrs by flow cytometry; type: functional, cell-based
HCT-116 [32] = experiment: Induction of 4GY ionizing radiation (IR) induced apoptosis in human HCT-116 cells assessed as early apoptotic cells at 10 uM measured after 24 hrs by FITC Annexin V/PI apoptosis detection assay (reference value: 17.50%); type: functional

SMILES: COc1cc2c(=O)n(CCN(C)C)c3c4cc5c(cc4ccc3c2cc1OCCN1CCOCC1)OCO5
- Activity [1]: Non-toxic
- Activity (HCT-116 [2]): Active
- viability at 5 µM (HCT-116 [3]): 61.3%
- Activity (HCT-116 [4]): Active
- Activity (HCT-116 [5]): 11%
- Activity (HCT-116 [6]): 23.04%
- Activity (HCT-116 [7]): Active
- Activity (HCT-116 [8]): inactive
- bioavailability [9]: 63.1%
- Activity (HCT-116 [10]): inactive
- Activity [11]: 11.88%
- half-life [12]: 4.64 h
- Activity (HCT-116 [13]): 18.4%
- Activity (HCT-116 [14]): inactive
- Activity (HCT-116 [15]): Active
- viability at 10 µM (HCT-116 [16]): 72.1%
- Activity [17]: Non-toxic
- Activity (HCT-116 [18]): Active
- Activity [19]: 68.1%
- Activity (HCT-116 [20]): 19.39%
- Activity (HCT-116 [21]): 10.9%
- Activity [22]: Non-toxic
- AUC(0-inf) [23]: 735 ng·h/mL
- CI (HCT-116 [24]): 0.94
- AUC(0-inf) [25]: 291 ng·h/mL
- TGI (HCT-116 [26]): Active
- CI (HCT-116 [27]): 0.46
- Activity (HCT-116 [28]): Active
- Activity [29]: Non-toxic
- Activity [30]: Active; Coincubation With Ionizing Radiation Showed Greater Complex Formation
- Activity (HeLa): inactive
- Activity (HCT-116 [31]): Active
- Activity (HCT-116 [32]): 19.85%
